The numbers were not newly measured in patent EP4488277A1, “NOVEL BISPIDINE-BASED METAL CHELATING LIGANDS DISPLAYING GOOD RELAXIVITY” (Université de Strasbourg, priority 2023, dated 2025), which cites them from elsewhere.

SMILES strings stand for the structures.

For the series the following is noted: pH of 7.4, 60 MHz, 25°C.

For `CNC[C@H](O)[C@@H](O)[C@H](O)[C@H](O)CO.O=C([O-])CN1CCN(CC(=O)[O-])CCN(CC(=O)O)CCN(CC(=O)[O-])CC1.[Gd+3]` [Dotarem®, gadoterate meglumine], the “relaxivity r1” value was 3.7 mM⁻¹ s⁻¹.
